These results are taken from patent publication US8362001B2, “Azetidinyl diamides as monoacylglycerol lipase inhibitors” (Janssen Pharmaceutica NV, priority 2009, dated 2013).

The structures appear in SMILES notation. Positions count from the first letter of the chain named. Some results are limits rather than exact numbers.

In one assay the test system is rat. The assay can be described thus: CFA-induced paw radiant heat hypersensitivity. In kind it is in vivo. The note with it: 30 mg/kg p.o., HPβCD, last time point 300 min, group mean values. On the procedure: Each rat was placed in a test chamber on a warm glass surface and allowed to acclimate for approximately 10 min. A radiant thermal stimulus (beam of light) was then focused through the glass onto the plantar surface of each hind paw in turn. The thermal stimulus was automatically shut off by a photoelectric relay when the paw was moved or when the cut-off time was reached (20 sec for radiant heat at ˜5 amps). An initial (baseline) response latency to the thermal stimulus was recorded for each animal prior to the injection of complete Freund's adjuvant (CFA). 24 h following intraplantar CFA injection, the response latency of the animal to the thermal stimulus was then re-evaluated and compared to the animal's baseline response time. […] Post-compound treatment withdrawal latencies were assessed at fixed time intervals, typically 30, 60, 120, 180, and 300 min.
The percent reversal (% R) of hypersensitivity was calculated in one of two different ways: 1) using group mean values or 2) using individual animal values. […]
Method 1. For all compounds, the % R of hypersensitivity was calculated using the mean value for groups of animals at each time point according to the following formula: % reversal=[(group treatment response−group CFA response)/(group baseline response−group CFA response)]×100 Results are given for the maximum % reversal observed for each compound at any time point tested. […]

For another assay, the target named is T1, MGL (Rattus norvegicus, UniProt Q8R431).
T1 construct: one g rat brain was homogenized using a Polytron homogenizer; from tissue; host or cells: rat brain homogenate
T1 sequence (Q8R431 1-303): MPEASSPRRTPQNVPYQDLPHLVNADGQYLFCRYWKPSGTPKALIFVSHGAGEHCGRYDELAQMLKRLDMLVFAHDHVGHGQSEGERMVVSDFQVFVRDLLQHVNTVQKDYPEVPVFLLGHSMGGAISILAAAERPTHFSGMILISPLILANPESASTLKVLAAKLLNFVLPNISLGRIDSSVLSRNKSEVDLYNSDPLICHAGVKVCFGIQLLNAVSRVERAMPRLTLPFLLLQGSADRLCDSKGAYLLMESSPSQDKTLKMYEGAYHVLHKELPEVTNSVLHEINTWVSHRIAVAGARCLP
In words: 2-AG accumulation assay in rat brain homogenate. In kind it is biochemical. As to conditions: compound 1 μM, percent vehicle = 2-AG accumulation with compound / in vehicle x 100, read-out: Rat Brain 2AG % VehCntrl (%) @1 μM.

The target in assay [1] is T2, purified wild type MGL (wt-MGLL 6H-11-313) (Homo sapiens, UniProt Q99685).
T2 sequence (Q99685 1-303): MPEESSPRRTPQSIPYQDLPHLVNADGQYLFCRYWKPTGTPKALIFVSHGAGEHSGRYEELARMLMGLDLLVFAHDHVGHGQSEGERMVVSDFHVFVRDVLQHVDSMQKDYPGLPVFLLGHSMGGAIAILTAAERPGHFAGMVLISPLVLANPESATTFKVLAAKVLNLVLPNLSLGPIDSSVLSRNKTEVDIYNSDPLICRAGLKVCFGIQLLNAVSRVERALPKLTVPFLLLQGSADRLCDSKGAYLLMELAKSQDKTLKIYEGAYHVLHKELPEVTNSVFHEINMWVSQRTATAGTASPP
The assay can be described thus: biochemical.

Another assay has as its target T3, mutant MGL (Homo sapiens, UniProt Q99685, L169S/L176S).
T3 sequence (Q99685 1-303 L169S/L176S): T2 sequence (Q99685 1-303) with L169S, L176S
The assay can be described thus: MGL ThermoFluor assay - mutant. On the technique in general: In DSF a fluorescence change marks the thermal transition of the protein.

Experimental for mutant MGL: The ThermoFluor (TF) assay is a 384-well plate-based binding assay that measures thermal stability of proteins^1,2. […] TF dye used in all experiments was 1,8-ANS (Invitrogen: A-47). Final TF assay conditions used for MGL studies were 0.07 mg/ml of mutant MGL, 100 μM ANS, 200 mM NaCl, 0.001% Tween-20 in 50 mM PIPES (pH=7.0).
Screening compound plates contained 100% DMSO compound solutions at a single concentration. […] Columns 12 and 24 were used as DMSO reference and contained no compound. […] Following compound dispension, protein and dye solutions were added to achieve the final assay volume of 3 μL.
Bar-coded assay plates were robotically loaded onto a thermostatically controlled PCR-type thermal block and then heated from 40 to 90° C. degrees at a ramp-rate of 1° C./min for all experiments. Fluorescence was measured by continuous illumination with UV light (Hamamatsu LC6), supplied via fiber optics and filtered through a band-pass filter (380-400 nm; >60D cutoff). Fluorescence emission of the entire 384-well plate was detected by measuring light intensity using a CCD camera (Sensys, Roper Scientific) filtered to detect 500±25 nm, resulting in simultaneous and independent readings of all 384 wells. A single image with 20-sec exposure time was collected at each temperature, and the sum of the pixel intensity in a given area of the assay plate was recorded vs temperature and fit to standard equations to yield the Tm^1. • 1.
For some experiments, quantitative NMR spectroscopy (qNMR) was used to measure concentration of the initial 100% DMSO compound solutions and, using the same fitting method, qKd values were determined

As to `C/C(=C\c1ccc(Cl)cc1)c1c(C)c(C(=O)N2CC(N3CCN(C(=O)c4nccs4)CC3)C2)nn1-c1ccc(Cl)cc1Cl` [Cpd 1010], the inhibition in vivo at 30 mg/kg in the assay on rat (Rattus norvegicus, po, 5 h, read-out: Method 1: peak % reversal) amounted to 23.4%. On to `O=C(c1ccc[nH]1)N1CC(N2CCN(C(=O)c3cc4cc(C(F)(F)F)ccc4s3)CC2)C1` [Cpd 722, 1-[1-(1H-Pyrrol-2-ylcarbonyl)azetidin-3-yl]-4-{[5-(trifluoromethyl)-1-benzothiophen-2-yl]carbonyl}piperazine], for which the activity at 1 µM on MGL is 240%. One may read the IC50 as the midpoint of a concentration-inhibition curve. Low readings indicate greater potency, high ones weaker potency. One may read the Kd as the free concentration of one partner at which half of the binding sites on the other are occupied at equilibrium, for simple one-to-one binding. The compound `O=C(c1ccc2c(ccn2-c2ccc(C(F)(F)F)cc2)c1)N1CCN(C2CN(C(=O)c3cscn3)C2)CC1` [Cpd 1337, 5-({4-[1-(1,3-Thiazol-4-ylcarbonyl)azetidin-3-yl]piperazin-1-yl}carbonyl)-1-[4-(trifluoromethyl)phenyl]-1H-indole] had a 50% inhibitory concentration (IC50) in assay [1] of less than 5 nM. In addition, the Kd at mutant MGL stood at 40 nM. `Cc1nc(C(=O)N2CCN(C3CN(C(=O)c4ccc(-c5cccc(C(F)(F)F)c5)cc4)C3)CC2)cs1` [Cpd 1217, 1-[(2-Methyl-1,3-thiazol-4-yl)carbonyl]-4-(1-{[3′-(trifluoromethyl)biphenyl-4-yl]carbonyl}azetidin-3-yl)piperazine] showed an IC50 in assay [1] of 220 nM. On mutant MGL, this compound yielded a Kd of 104 nM. Take `O=C(c1ccc(-c2cccc(C(F)(F)F)c2)c(Cl)c1)N1CC(N2CCN(C(=O)c3cscn3)CC2)C1` [Cpd 1102]: the “Method 1: peak % reversal” value in the assay on rat was 38%. In assay [1], `Cc1cn(-c2ccc(F)c(F)c2)c2ccc(C(=O)N3CCN(C4CN(C(=O)c5ccc[nH]5)C4)CC3)cc12` [Cpd 1219, 1-(3,4-Difluorophenyl)-3-methyl-5-({4-[1-(1H-pyrrol-2-ylcarbonyl)azetidin-3-yl]piperazin-1-yl}carbonyl)-1H-indole] gave an IC50 of 235 nM. Besides, the affinity on mutant MGL, expressed as Kd, was 25 nM. The like results for `O=C(c1ccccc1)N1CCN(C2CN(C(=O)c3ccc4c(c3)c(F)cn4-c3ccc(F)cc3)C2)CC1` [Cpd 574, 3-Fluoro-1-(4-fluorophenyl)-5-({3-[4-(phenylcarbonyl)piperazin-1-yl]azetidin-1-yl}carbonyl)-1H-indole] were, in that order, 49 nM and 48 nM. The compound `O=C(c1ccc(-c2cccc(C(F)(F)F)c2)cc1)N1CC(N2CCN(C(=O)c3ccc(F)s3)CC2)C1` [Cpd 1336, 1-[(5-Fluorothiophen-2-yl)carbonyl]-4-(1-{[3′-(trifluoromethyl)biphenyl-4-yl]carbonyl}azetidin-3-yl)piperazine] had an IC50 in assay [1] of less than 5 nM. Besides, the affinity on mutant MGL, expressed as Kd, was 2 nM.
